Key:
[1] = system: fat cells; assay: cellular toxicity in fat cells; assay type: cell-based; details: FIG. 6A, drug 30 ug/mL
[2] = system: mature fat cells; assay: glucose consumption rate of fat cells in culture medium; assay type: cell-based; details: 24 hours, control group about 20%
Text: Please refer to FIGS. 6A-6C. FIGS. 6A-6C show the results of the activity of the glucose consumption rate of fat cells in the culture medium. As shown in FIGS. 6A-6C, various compounds containing halogens, such as chlorine, bromine and iodine, can increase the glucose consumption rate of fat cells. Many of the deuterium-containing compounds are new ones in this example. […] Symbol ‘Con’ denotes the Control Group, Symbol ‘5’ denotes a 2Br2H compound, Symbol ‘6’ denotes a 2I2H compound, Symbol ‘Met’ denotes a metformin, Symbol ‘AI’ denotes an AMPK inhibitor, Symbol ‘L’ denotes a low-dose usage of 15 ug/mL, and Symbol ‘H’ denotes a high-dose usage of 30 ug/mL
The activity of the glucose consumption rate of fat cells is taken from the following: A testing drug, 2,3-dideutero-1-(2-iodophenyl)-3-(4-methoxyphenyl)propan-1-one with the concentration 30 ug/mL, was cultured with mature fat cells for 24 hours. It was then tested to determine the change of the glucose concentration in the culture medium.
24 hours after the replacement of a culture media, the glucose consumption rate of the control group was about 20%. After insulin was added, the glucose consumption rate of the cells in the control group upgrades to 30%. With the commercial drug, Pioglitazone of 30 ug/mL, the glucose consumption rate of the cells in the corresponding group increased to 40%.

| Compound | cellular toxicity [1] | further results |
| --- | --- | --- |
| [2H]C(C(=O)c1ccccc1I)C([2H])c1ccc(OC)cc1 (centres unmarked) [2I1D, 2,3-dideutero-1-(2-iodophenyl)-3-(4-methoxyphenyl)propan-1-one] | no visible cellular toxicity | – |
| COc1ccc(/C=C/C(=O)c2ccccc2I)cc1 [2I2H, (E)-1-(2-iodophenyl)-3-(4-methoxyphenyl)prop-2-en-1-one] | no visible cellular toxicity | – |
| COc1ccc(C#CC(=O)c2ccccc2I)cc1 [2I3, 1-(2-iodophenyl)-3-(4-methoxyphenyl)prop-2-yn-1-one] | significant cellular toxicity | – |
| CCc1ccc(CCOc2ccc(CC3SC(=O)NC3=O)cc2)nc1 (centres unmarked) [Pioglitazone, reference compound] | – | glucose consumption rate of the cells ([2]; mature fat cells, drug 30 ug/mL): 40% |
| insulin: insulin added to fat cells as a positive control | – | glucose consumption rate of the cells ([2]; fat cells, after insulin was added): 30% |

Reference: US20160214918A1, “COMPOSITION FOR TREATING METABOLIC SYNDROME AND A PREPARATION METHOD THEREOF” (Kaohsiung Medical University, priority 2015, published 2016)
